# Experimental data reported in patent US20090081721A1, “HIGH-THROUGHPUT CELL ASSAYS” (The Regents of the University of California, priority 2007, published 2009).
# Where two headings read alike, the source gives them in different places.
# Experiments:
# E. coli = test: Isothermal titrative calorimetry (ITC) susceptibility test, power output and CFUs recovered; format: cell-based; conditions: for Exponential increase in energy after injection (ITC thermogram): 10^4 wild-type antibiotic susceptible E. coli, 1 ml Mueller-Hinton broth, injection at 7,200 sec, 14,400 sec total
# Procedure: (§1) In general, the susceptibility of bacterial strains can be tested by loading the chamber of an isothermal titrative calorimeter with a single bacterial strain, holding a constant temperature of 37° C. for a set time period (e.g., 14,400 seconds (4 hours)) and monitoring the power produced by the bacteria before and after application of an antimicrobial. Following the loading of the calorimeter, there is an initial energy spike within the first 1500 seconds (25 minutes) that is a normal equilibration period for a calorimeter. After the instrument and sample have equilibrated, the energy produced by a normally growing and dividing culture increases in an exponential manner, similar to a log phase growth curve of a microbial culture based on optical density (OD). Like the exponential increase in OD observed for a growing culture, the exponential increase in energy produced also seems to be associated with an increased number of cells in the medium because the number of cells retrieved from the calorimeter following a susceptibility test increases by about 2-3 orders of magnitude. (See Table 1).
# In one aspect, the method is practiced by loading into a Isothermal Titrative Calorimetry (ITC) various drugs or antibiotics to which the cells such as microorganisms may be susceptible. The antibiotics can be loaded at different rates and at different growth densities. The difference in power produced by the sample co-cultured with the antibiotics are then measured and compared to the same untreated culture or culture treated with water. The data is differentiated to find the maximum growth rate (dP/dt), and integrated to determine the total microjoules produced by the culture after an antimicrobial was injected. If the organism is resistant to the antibiotic, the maximum growth rate is similar to that when the co-cultured with water. If the microorganism is sensitive to the antibiotic, maximum dP/dt and total microjoule (μJ) for the antimicrobial treated sample are much lower than the untreated sample or the sample treated with water. […]
# K. pneumoniae [1] = test: as above; format: cell-based, Klebsiella pneumoniae; conditions: for Number of microbes (CFUs) in calorimetry chamber after incubation: 10^5 loaded, 4-hour monitoring; for Max dP/dt (100 save) after injection / Total μJ produced after injection: ciprofloxacin susceptible, ampicillin resistant strain
# Procedure: as §1
# (§2) In one aspect, the method is practiced by loading into a Isothermal Titrative Calorimetry (ITC) various drugs or antibiotics to which the cells such as microorganisms may be susceptible. The antibiotics can be loaded at different rates and at different growth densities. The difference in power produced by the sample co-cultured with the antibiotics are then measured and compared to the same untreated culture or culture treated with water. The data is differentiated to find the maximum growth rate (dP/dt), and integrated to determine the total microjoules produced by the culture after an antimicrobial was injected. If the organism is resistant to the antibiotic, the maximum growth rate is similar to that when the co-cultured with water. If the microorganism is sensitive to the antibiotic, maximum dP/dt and total microjoule (μJ) for the antimicrobial treated sample are much lower than the untreated sample or the sample treated with water. See FIGS. 6 through 9 for exemplary ITC-generated growth data.
# (§3) The susceptibility of bacterial strains was tested by loading the chamber of an Isothermal Titrative Calorimeter (Calorimetry Sciences Corporation (CSC) and others are commercially available, see microcal.com/index, last accessed on Dec. 28, 2007) with a single bacterial strain, holding a constant temperature of 37° C. for 14,400 seconds (4 hours) and monitoring the power produced by the bacteria before and after application of an antimicrobial. Following the loading of the calorimeter, there is an initial energy spike within the first 1500 seconds (25 minutes) that is a normal equilibration period for a calorimeter. After the instrument and sample have equilibrated, the energy produced by a normally growing and dividing culture increases in an exponential manner, similar to a log phase growth curve of a microbial culture based on optical density (OD). Like the exponential increase in OD observed for a growing culture, the exponential increase in energy produced also seems to be associated with an increased number of cells in the medium because the number of cells retrieved from the calorimeter following a susceptibility test increases by 2-3 orders of magnitude. (See Table 1). A second spike in heat transfer being produced/absorbed in the calorimeter is associated with injection of either water or an antimicrobial into the injection chamber. This spike can be attributed to the enthalpy associated with dilution of the injected solution into the growth medium. […] If a strain is susceptible, a rise in power is not observed. If the strain is resistant to the agent or antimicrobial, the exponential rise in power is observed.
# (§4) […]. H2O, ampicillin, or ciprofloxacin was injected into the chamber at 7,200 sec (2 hours). […]
# P. mirabilis [2] = test: as above; format: cell-based, Proteus mirabilis; conditions: for Exponential increase in power (μW) after injection (ITC thermogram): injection at 7,200 sec, 14,400 sec total; for Number of microbes (CFUs) in calorimetry chamber after incubation: 10^5 loaded, 4-hour monitoring; for Max dP/dt (100 save) after injection / Total μJ produced after injection: ciprofloxacin resistant, ampicillin resistant strain
# Procedure: as §1, §2, §3
# . H2O, ampicillin, or ciprofloxacin was injected into the chamber at 7,200 sec (2 hours). […]
# A. baumanii [3] = test: as above; format: cell-based, Acinetobacter baumanii; conditions: for Exponential increase in power (μW) after injection (ITC thermogram): 10^5 A. baumanii, 1 ml Mueller-Hinton broth, injection at 7,200 sec, 14,400 sec total; for Number of microbes (CFUs) in calorimetry chamber after incubation: 10^5 loaded, 4-hour monitoring; for Max dP/dt (100 save) after injection / Total μJ produced after injection: ciprofloxacin resistant, ampicillin resistant strain
# Procedure: as §1, §2, §3, §4
# P. mirabilis [4] = test: Minimum inhibitory concentration (traditional susceptibility testing); format: cell-based; conditions: Proteus mirabilis
# Procedure: (§5) Minimum inhibitory concentrations are determined by inoculating several cultures of bacteria in separate tubes or wells of broth that typically contain a 2-fold serial dilution of an antimicrobial.
# K. pneumoniae [5] = test: as above; format: cell-based; conditions: Klebsiella pneumoniae
# Procedure: as §5
# A. baumanii [6] = test: as above; format: cell-based; conditions: Acinetobacter baumannii; wild-type ampicillin and ciprofloxacin resistant A. baumanii strain used in ITC
# Procedure: as §5
# [7] = 10^5 P. mirabilis, 1 ml Mueller-Hinton broth
compound,measurement,setting,value
"CC1(C)S[C@@H]2[C@H](NC(=O)[C@H](N)c3ccccc3)C(=O)N2[C@H]1C(=O)O [Ampicillin, ampicillin]",Exponential increase in energy after injection (ITC thermogram),E. coli,exponential increase in energy only continued in the sample injected with H2O
same,Exponential increase in power (μW) after injection (ITC thermogram),"K. pneumoniae [1]; 10^5 K. pneumoniae, 1 ml Mueller-Hinton broth, injection at 7,200 sec, 14,400 sec total",exponential increase in power continued in the sample injected with H2O and ampicillin
same,Number of microbes (CFUs) in calorimetry chamber after incubation,K. pneumoniae [1]; Ampicillin 40 μg/ml,2.0 × 10^7 CFUs
same,Max dP/dt (100 save) after injection,K. pneumoniae [1]; Ampicillin 40 μg/ml,0.029
same,Total μJ produced after injection,K. pneumoniae [1]; Ampicillin 40 μg/ml,"139,108 μJ"
same,Exponential increase in power (μW) after injection (ITC thermogram),P. mirabilis [2]; [7],exponential increase in power continued in all three samples
same,Number of microbes (CFUs) in calorimetry chamber after incubation,P. mirabilis [2]; Ampicillin 40 μg/ml,9.0 × 10^5 CFUs
same,Max dP/dt (100 save) after injection,P. mirabilis [2]; Ampicillin 40 μg/ml,0.027
same,Total μJ produced after injection,P. mirabilis [2]; Ampicillin 40 μg/ml,"161,844 μJ"
same,Exponential increase in power (μW) after injection (ITC thermogram),A. baumanii [3],exponential increase in power continued in all three samples
same,Number of microbes (CFUs) in calorimetry chamber after incubation,A. baumanii [3]; Ampicillin 40 μg/ml,3.0 × 10^7 CFUs
same,Max dP/dt (100 save) after injection,A. baumanii [3]; Ampicillin 40 μg/ml,0.026
same,Total μJ produced after injection,A. baumanii [3]; Ampicillin 40 μg/ml,"91,240 μJ"
same,MIC,P. mirabilis [4],> 1020 µg/mL
same,MIC,K. pneumoniae [5],> 1020 µg/mL
"O=C(O)c1cn(C2CC2)c2cc(N3CCNCC3)c(F)cc2c1=O [Ciprofloxacin, ciprofloxacin]",Exponential increase in energy after injection (ITC thermogram),E. coli,exponential increase in energy only continued in the sample injected with H2O
same,Number of microbes (CFUs) in calorimetry chamber after incubation,"E. coli; Ciprofloxacin 2 μg/ml, 10^4 loaded, 4-hour monitoring",1.7 × 10^7 CFUs
same,Number of microbes (CFUs) in calorimetry chamber after incubation,K. pneumoniae [1]; Ciprofloxacin 2 μg/ml,3.6 × 10^7 CFUs
same,Max dP/dt (100 save) after injection,K. pneumoniae [1]; Ciprofloxacin 2 μg/ml,0.003
same,Total μJ produced after injection,K. pneumoniae [1]; Ciprofloxacin 2 μg/ml,"24,676 μJ"
same,"Rate of exponential increase in power after injection, compared with ampicillin or H2O","P. mirabilis [2]; 10^5 P. mirabilis, 1 ml Mueller-Hinton broth, injection at 7,200 sec",lower than for ampicillin or H2O
same,Exponential increase in power (μW) after injection (ITC thermogram),P. mirabilis [2]; [7],exponential increase in power continued in all three samples
same,Number of microbes (CFUs) in calorimetry chamber after incubation,P. mirabilis [2]; Ciprofloxacin 2 μg/ml,4.1 × 10^6 CFUs
same,Max dP/dt (100 save) after injection,P. mirabilis [2]; Ciprofloxacin 2 μg/ml,0.012
same,Total μJ produced after injection,P. mirabilis [2]; Ciprofloxacin 2 μg/ml,"79,439 μJ"
same,Exponential increase in power (μW) after injection (ITC thermogram),A. baumanii [3],exponential increase in power continued in all three samples
same,Number of microbes (CFUs) in calorimetry chamber after incubation,A. baumanii [3]; Ciprofloxacin 2 μg/ml,2.1 × 10^7 CFUs
same,Max dP/dt (100 save) after injection,A. baumanii [3]; Ciprofloxacin 2 μg/ml,0.027
same,Total μJ produced after injection,A. baumanii [3]; Ciprofloxacin 2 μg/ml,"100,846 μJ"
same,MIC,A. baumanii [6],> 32 µg/mL
same,MIC,"P. mirabilis [4]; ampicillin resistant, weakly ciprofloxacin resistant P. mirabilis strain used in ITC, read-out: MIC",4 µg/mL
CC(C)(O/N=C(\C(=O)N[C@@H]1C(=O)N2C(C(=O)[O-])=C(C[n+]3ccccc3)CS[C@H]12)c1csc(N)n1)C(=O)O [ceftazidime],MIC,P. mirabilis [4],128 µg/mL
